In patent US9322034B2, “Compositions and methods for detecting and modulating cell death by a translation regulated gene expression system” (Wayne State University, priority 2007, dated 2016):

Legend:
Format in all cases: cell-based, human
[1] = system: HEK293 TRplp-fLUC subclone #3 and HEK293 TRdm-fLUC subclone #45; assay: Microplate reader temporal response, lysed cell luciferase assay; settings: 6.7 micromolar
Protocol: For this example, HEK293 cells expressing the TRplp-EYFP, TRdm-EYFP, TRplp fLUC and TRdm-fLUC expression cassettes are evaluated using a microplate reader. To quantitate the TR translational response, 24,000 cells are plated in a 96-well microtiter plates and allowed to grow for about 40 hr to achieve the proper cell density prior to incubation with a toxic agent. Each well is cultured with complete DMEM medium containing either no toxin or a defined concentration of toxin and incubated at 37 C for specific time periods. At that time, fluorescence or chemiluminescence on a FLUOstar Optima (BMG Labtech) microplate reader is used measure TR-ORF response.
For a lysed cell assay, cells are cultured as above, but in regular flat bottom 96-well trays. After toxin incubation, the 96-well plates are centrifuged as above. The media is removed, replaced with 50 microliters of Cell Lysis Buffer (25 mM Tris-phosphate (pH7.8), 10% glycerol, 1% TritonX-100, 1 mg/ml BSA, 2 mM EGTA and 2 mM DTT) and incubated for 10 min at RT. Cell lysis is verified using a phase contrast microscope, and the lysates transferred to a white bottom 96-well tray. Luminescence is developed by injection of 5 microliters of D-luciferin solution dissolved in Reaction Buffer (25 mM Glycylglycine (pH 7.8), 15 mM MgSO4, 4 mM EDTA, 15 mM Potassium phosphate, 1 mM DTT, 1 mM Coenzyme A, 6.7 mM ATP and 3.35 mM D-luciferin). After 4 sec with shaking, luminescence values were measured using the lens filter at gains of 2000-3000.
Temporal response assays are used to define the timing of TR-regulated translation during incubation in toxic levels of a cytotoxic agent. HEK293 TRplp-fLUC subclone #3 and HEK293 TRdm-fLUC subclone #45 are cultured in 6.7 micromolar calcium ionophore A23187 for various times (0 hr, 1.5 hr, 3 hr, 4.5 hr, 6 hr, 7.5 hr, 9 hr, 10.5 hr, 12 hr and 13.5 hr) and analyzed as described above using a lysed cell luciferase assay (FIG. 11).

[2] = system: HEK293 cell pools expressing the fLUC-TRplp-EYFP, fLUC-TRdm-EYFP, pcuLf-TRplp-EYFP or pcuLf-TRdm-EYFP expression cassettes; assay: Cytotoxicity assay by Western blot, bicistronic TR cassettes; settings: toxic doses
[3] = system: HT1080 cells transduced with rBAC-TRdm-EYFP virions; assay: Cytotoxic event assay using rBAC-TRdm-EYFP gene delivery, fluorescence microscopy; settings: 5 μM
Protocol: HT1080 cells are plated in 6-well trays and allowed to grow until 70-80% confluent. Two sets of HT1080 cells are transduced with rBAC-TRdm-EYFP virions (multiplicity of infection of 10 pfu/cell and 25 pfu/cell) for 24 hr and then treated with medium containing 5 μM calcium ionophore A23187 for 13.5 hr and 23 hr. At this time, untreated and treated cells are processed and examined by fluorescence microscopic analysis as described above.

[4] = system: HEK293 cells expressing the TRplp-fLUC or TRdm-fLUC expression cassette; assay: Cytotoxicity assay by Western blot, monocistronic TR-fLUC cassettes
Protocol: For this example, expression and regulation of the TRplp-EYFP, TRdm-EYFP, TRplp-fLUC, or TRdm-fLUC expression cassettes in stably transformed HEK293 cells are validated using Western blot analysis. Cell lines or pools are grown in six-well trays or 60 mm dishes to about 60% confluence and treated with complete medium supplemented with a toxic chemical. […] Control samples are treated with fresh medium. Treated and control cells were removed by pipette, collected in media, pelleted for 5 min at 800 rpm (room temperature), and either stored at −70/−80° C. or immediately processed for total proteins.
For protein extraction, cells are resuspended in equal volumes of Suspension Buffer (100 mM NaCl, 10 mM Tris-HCl [pH 7.6], 1 mM EDTA, 1 mg/mL aprotinin, 100 μg/mL PMSF) and 2×SDS Buffer (100 mM Tris-HCl [pH 6.8], 4% SDS, 20% glycerol, 200 mM DTT). Frozen cells are thawed on ice prior to resuspension. The extracts are homogenized by several passages through a syringe fitted with a 26 G needle. Samples are subsequently incubated at RT for 1-2 hr. Samples are transferred to −70/−80° C. for storage or applied to an SDS PAGE gel and examined by Western blot analysis.
To insure equal protein loading levels on Western blots, 10 μL of each protein extract are initially resolved by SDS PAGE, fixed overnight in Preblot gel fixer (25% isopropanol, 10% acetic acid), and stained in 0.05% Coomassie blue (0.05% brilliant blue R, 50% methanol, 10% acetic acid) for 20 min, RT. Gels are destained in 10% acetic acid and dried under vacuum. Using the dried gels, any necessary volume adjustment was made to samples prior to Western blotting.
Western blot analysis is a well established technique in the art and is summarized in the following. Following SDS PAGE gel resolution and protein transfer to a solid membrane support by electrophoresis, the membranes are dried overnight. […] Similarly, fLUC protein is detected using an anti-fLUC antibody (Sigma; 1:1000 dilution). After incubation with a primary antibody and extensive washing (1×PBS-T), proteins binding the primary antibody are detected by incubation with a horseradish peroxidase (HRP) conjugated anti-rabbit or anti-mouse antibody (Amersham; 1:5000 to 1:10000 dilution). Following incubation with the secondary antibody and extensive washing, reactive proteins are detected with the ECL reagent system (Amersham) as described by the vendor.
Following treatment with toxic levels of the calcium ionophore A23187, highly significant increases in fLuc protein levels are observed in the stressed and dying cells that were not evident in untreated cultures. Individual protein bands are quantitated by densitometry on a Beckman DU7400 spectrophotometer.

**Q.** Which results are given for `CNc1ccc2oc(C[C@H]3O[C@@]4(CC[C@H]3C)O[C@H]([C@H](C)C(=O)c3ccc[nH]3)[C@H](C)C[C@H]4C)nc2c1C(=O)O` [calcium ionophore A23187]?
**A.** time up to which translational activity increases linearly, values adjusted to HEK293 CMV-fLUC cells ([1]; ratio to CMV-fLUC): 12 h; time post-incubation by which significant TR-specific translation is detected ([1]; raw luciferase numbers): ≤ 1.5 h; time post-incubation up to which translational activity increases linearly, then plateau ([1]; raw luciferase numbers): 9 h; EYFP translation in cell pools expressing the bicistronic TR cassettes (Western blot, FIG. 4) [2]: induce EYFP translation; increase in EYFP positive cells compared to infected but untreated cell samples ([3]; 13.5 hr, 10 pfu/cell): 3344%; increase in EYFP positive cells compared to infected but untreated cell samples ([3]; 13.5 hr, 25 pfu/cell): 4925%; decrease in the number of attached cells ([3]; 23 hr): more than 50%; increase in EYFP positive cells compared to infected but untreated cell samples ([3]; 23 hr, 10 pfu/cell): 725%; increase in EYFP positive cells compared to infected but untreated cell samples ([3]; 23 hr, 25 pfu/cell): 875%; average increase in fLuc protein levels in stressed and dying cells ([4]; HEK293 TRdm-fLuc cells, n=6): 524.3%; average increase in fLuc protein levels in stressed and dying cells ([4]; HEK293 TRplp-fLuc expressing cells, n=5): 402.8%; increases in fLUC protein levels, % of the protein levels detected in untreated TRplp-fLUC/TRdm-fLUC cells ([4]; cell pools and lines, toxic levels (5-6.7 micromolar), densitometry of Western blot): 160-800%; fLUC protein levels in stressed and dying TR-fLUC cells, % of the protein levels of cells expressing cap-dependent CMV-fLuc ([4]; toxin-treated cells, FIG. 6): ≤ 110%
